The values below come from patent US9238039B2, “Pyrazolo[1,5-A]pyrimidines for antiviral treatment” (Gilead Sciences, Inc., priority 2010, dated 2016).

This test has as its system RSV strain A2. The experiment in a line: RSV antiviral cytoprotection assay in Hep2 cells (96-well and 384-well format, Cell TiterGlo read-out). The test is classed as cell-based, Respiratory Syncytial Virus (RSV). As to conditions: human respiratory syncytial virus; for inhibition at 0.5 µM: HEp-2, 0.5 uM, RSV-induced cytopathic effect in Hep2 cells, calculated from fitted dose response curve, normalized to 0% and 100%; for EC50: HEp-2, RSV-induced cytopathic effects, Hep2 cells, class symbols.

Structures are written as SMILES.

Regarding `CS(=O)(=O)Nc1ccc(Cl)cc1C(=O)N1CCCC[C@H]1c1cc2nc(N3CCC3)cc(N3CCN[C@@H](CF)C3)n2n1` [Compound 162], the inhibition at 0.5 µM is 100% and the EC50 is 0.1 to 100 nM.

On to `Cc1ccc(C(=O)N2CCCC[C@H]2c2cc3nc(N4CC[C@H](N)C4)c(C)cn3n2)c(O)c1` [Compound 293], for which the inhibition at 0.5 µM was 64% and the 50% effective concentration (EC50) was 101 to 1000 nM.

As for `Cc1cc(C(=O)N2CCCC[C@H]2c2cc3nc(N4CC[C@H](N)C4)c(C)cn3n2)n(C(F)F)n1` [Compound 354], the inhibition at 0.5 µM is 87% and the concentration giving a half-maximal response (EC50) fell in the range of 101 to 1000 nM.

For `Cc1ccc(C(=O)N2CCCC[C@H]2c2cc3nc(N4CC[C@H](N)C4)c(C)cn3n2)cc1Cl` [Compound 332], the inhibition at 0.5 µM was 100% and the 50% effective concentration (EC50) was in the range of 0.1 to 100 nM.

Turning to `CS(=O)(=O)Nc1ccc(Cl)cc1C(=O)N1CCCC[C@H]1c1cc2nc(N3CC[C@@H](O)C3)cc(N3CC(N)C3)n2n1` [Compound 132], the inhibition at 0.5 µM is 97% and the 50% effective concentration (EC50) was in the range of 0.1 to 100 nM.

As to `CN(C)[C@H]1CCN(c2cc(N3CCC3)nc3cc([C@@H]4CCCCN4C(=O)c4cc(Cl)ccc4NS(C)(=O)=O)nn23)C1` [Compound 76], the inhibition at 0.5 µM is 100% and the EC50 was in the range of 0.1 to 100 nM.

On to `COCc1ccc(C(=O)N2CCCC[C@H]2c2cc3nc(N4CC[C@H](N)C4)c(C)cn3n2)cc1` [Compound 321], for which the inhibition at 0.5 µM was 100% and the EC50 fell in the range of 0.1 to 100 nM.

As for `Cc1cn2nc([C@@H]3Cc4ccccc4CN3C(=O)c3cc(Cl)ccc3NS(C)(=O)=O)cc2nc1N1CC[C@H](N)C1` [Compound 176], the inhibition at 0.5 µM is 100% and the EC50 was 0.1 to 100 nM.

With `Cc1cn2nc([C@@H]3CCCCN3C(=O)c3nccc4ccccc34)cc2nc1N1CC[C@H](N)C1` [Compound 344], the inhibition at 0.5 µM is 100% and the concentration for a half-maximal effect (EC50) was in the range of 0.1 to 100 nM.

For `Cc1cn2nc([C@@H]3CCCCN3C(=O)c3cc(N)ccc3NS(C)(=O)=O)cc2nc1N1CC(O)C1` [Compound 192], the inhibition at 0.5 µM was 100% and the EC50 was 0.1 to 100 nM.

Take `Cc1cn2nc([C@@H]3CCCCN3C(=O)c3ccco3)cc2nc1N1CC[C@H](N)C1` [Compound 258]: the inhibition at 0.5 µM is 100% and the concentration giving a half-maximal response (EC50) is 0.1 to 100 nM.

Turning to `Cc1cn2nc([C@@H]3CCCCN3C(=O)c3ccc(C4CC4)cc3)cc2nc1N1CC[C@H](N)C1` [Compound 313], the inhibition at 0.5 µM was 100% and the 50% effective concentration (EC50) is 0.1 to 100 nM.

The inhibition is how much of the control response was suppressed. For orientation: EC50 means the midpoint of the concentration-response curve.
